Laboratory results from ChEMBL document CHEMBL6153171, “Redefining Antifungal Treatment: The Innovation of Metal-Based Compounds” (2025).
Converted amounts (≈) assume the structure as drawn.

How the values were obtained:
Format in all cases: functional
Candida tropicalis [1] = assay: Anti-fungal activity against Candida tropicalis assessed as inhibition of fungal growth
Candida tropicalis [2] = assay: Antifungal activity against Candida tropicalis ATCC 1369 assessed as inhibition of fungal growth by CLSI protocol based microdilution method
Epidermophyton floccosum = assay: Antifungal activity against Epidermophyton floccosum
Trichophyton violaceum = assay: Antifungal activity against Trichophyton violaceum
Nakaseomyces glabratus = assay: Antifungal activity against Candida glabrata assessed as reduction in fungal growth; parameters: concentration or dose not given beside the values
Candida albicans [3] = assay: Antifungal activity against Candida albicans ATCC 10231 assessed as fungal growth inhibition incubated for 24 hrs by CLSI protocol based microbroth dilution assay
Candida albicans [4] = assay: Antifungal activity against Candida albicans ATCC 10231 assessed as growth inhibition measured after 48 hrs by CLSI based method
Trichophyton rubrum = assay: Antifungal activity against Trichophyton rubrum assessed as fungal growth inhibition incubated for 48 hrs by microplate reader assay
Trichophyton tonsurans = assay: Antifungal activity against Trichophyton tonsurans
[5] = tested on: Trichophyton interdigitale; assay: Antifungal activity against Trichophyton interdigitale
[6] = tested on: Trichophyton mentagrophytes; assay: Antifungal activity against Trichophyton mentagrophytes
Candida albicans [7] = assay: Antifungal activity against Candida albicans assessed as reduction in microbial growth
Candida albicans [8] = assay: Antifungal activity against fluconazole-resistant Candida albicans MFBF 11100 assessed as inhibition of fungal growth incubated for 48 hrs by liquid medium dilution method
Candida albicans [9] = assay: Antifungal activity against fluconazole-resistant Candida albicans ATCC 10213 assessed as inhibition of fungal growth incubated for 48 hrs by liquid medium dilution method
Cryptococcus neoformans [10] = assay: Antifungal activity against Cryptococcus neoformans ATCC 34877 assessed as reduction in fungal growth incubated for 72 hrs by liquid based microdilution method
[11] = Antifungal activity against Cryptococcus gattii VGI ATCC LMM 818 assessed as reduction in fungal growth incubated for 72 hrs by liquid based microdilution method
Cryptococcus neoformans [12] = assay: Antifungal activity against Cryptococcus neoformans H99 assessed as reduction in fungal growth incubated for 48 hrs by liquid based microdilution method
[13] = Antifungal activity against Cryptococcus gattii VGI ATCC 14116 assessed as reduction in fungal growth incubated for 72 hrs by liquid based microdilution method
Cryptococcus neoformans [14] = assay: Antifungal activity against Cryptococcus neoformans ATCC 34877 assessed as reduction in fungal growth incubated for 48 hrs by liquid based microdilution method
Aspergillus flavus [15] = assay: Antifungal activity against Aspergillus flavus assessed as fungal growth inhibition
Candida albicans [16] = assay: Antifungal activity against Candida albicans assessed as fungal growth inhibition
Aspergillus flavus [17] = assay: Antifungal activity against Aspergillus flavus assessed as reduction in fungal growth incubated for 24 hrs by two-fold serial dilution method; parameters: scale not given: the % may be the effect or the level left
Candida albicans [18] = assay: Antifungal activity against Candida albicans ATCC 2091 assessed as reduction in fungal growth
Microsporum canis = assay: Antifungal activity against Microsporum canis assessed as inhibition of fungal growth; parameters: scale not given: the % may be the effect or the level left
Candida albicans [19] = assay: Antifungal activity against Candida albicans assessed as fungal growth inhibition at 5 ug/ml incubated for 24 hrs by CLSI protocol based microbroth dilution assay relative to control; parameters: scale not given: the % may be the effect or the level left; conditions: dose 5 µg/ml
Aspergillus flavus [20] = assay: Antifungal activity against Aspergillus flavus
Candida albicans [21] = assay: Antifungal activity against Candida albicans SC5314 assessed as reduction in fungal growth incubated for 72 hrs by broth micro-dilution method
Aspergillus flavus [22] = assay: Antifungal activity against Aspergillus flavus ATCC 16870 assessed as inhibition of growth incubated for 48 hrs by two-fold serial dilution method
Candida albicans [23] = assay: Antifungal activity against Candida albicans

Compound `Cc1ccc(-c2ccc(-c3ccccn3)nc2)cc1` has an MIC (Candida tropicalis [1]) of no more than 12.7 µM and an MIC (Candida tropicalis [2]) of no more than 20.4 µM.

`c1ccc(-c2ccc(-c3ccccn3)nc2)cc1` gave an MIC (Epidermophyton floccosum) of 26.9 µM (≈ 6.25 µg/mL) and an MIC (Trichophyton violaceum) of 26.9 µM (≈ 6.25 µg/mL).

In the case of `Cc1ccc(S(=O)(=O)Nc2ncccn2)cc1`, the Activity (Nakaseomyces glabratus) is reported as 53%.

With `C/C(=N\NC(=S)Nc1ccc(I)cc1)c1ccccn1` the MIC (Candida albicans [3]) was 6.2 µM (≈ 2.46 µg/mL) and the MIC (Candida albicans [4]) was 10.7 µM (≈ 4.24 µg/mL).

`C/C(=N\NC(=S)Nc1ccc([N+](=O)[O-])cc1)c1ccccn1` showed an MIC (Candida albicans [4]) of 10.7 µM (≈ 3.37 µg/mL).

Work on `NS(=O)(=O)c1ccc(/N=C/c2cc(Cl)ccc2O)cc1` yielded an Activity (Nakaseomyces glabratus) of 47%.

In the case of `O=C(O)c1c(O)c(F)c(F)c(F)c1F`, the MIC (Trichophyton rubrum) is reported as 25 µg/mL (≈ 119 µM), the MIC (Trichophyton tonsurans) is reported as 25 µg/mL (≈ 119 µM) and the MIC [5] is reported as 25 µg/mL (≈ 119 µM). The MIC [6] was 25 µg/mL (≈ 119 µM).

For `O=C(O)c1cc(F)c(F)c(F)c1O`, the MIC (Candida albicans [7]) was 50 µg/mL.

`COc1ccc(/C=N/NC(=O)c2cccnc2)c(O)c1` gave an IC90 (Candida albicans [8]) of 100 nM and an IC90 (Candida albicans [9]) of 180 nM.

`NC(=S)N/N=C(\N)c1ccccn1` gave an MIC90 (Cryptococcus neoformans [10]) of 26.3 µM (≈ 5.13 µg/mL), an MIC90 [11] of 52.5 µM (≈ 10.3 µg/mL) and an MIC90 (Cryptococcus neoformans [12]) of 13.1 µM (≈ 2.55 µg/mL). The MIC90 [13] was 26.3 µM (≈ 5.13 µg/mL).

`CCNC(=S)N/N=C(\N)c1ccccn1` gave an MIC90 (Cryptococcus neoformans [12]) of 13.1 µM (≈ 2.92 µg/mL).

For `CNC(=S)N/N=C(\N)c1ccccn1`, the MIC90 (Cryptococcus neoformans [10]) was 52 µM (≈ 10.9 µg/mL), the MIC90 (Cryptococcus neoformans [14]) was 2.01 µM (≈ 0.42 µg/mL) and the MIC90 [11] was 52 µM (≈ 10.9 µg/mL).

For `O=c1cc(O)c2c(=O)[nH]c3ccccc3c2o1`, the MIC (Aspergillus flavus [15]) was 226 µM (≈ 51.7 µg/mL) and the MIC (Candida albicans [16]) was 233 µM (≈ 53.4 µg/mL).

`CCCN(CCC)C(=S)NC(=O)c1ccc(Br)o1` gave an Activity (Aspergillus flavus [17]) of 52% and an Activity (Nakaseomyces glabratus) of 42%.

Work on `O=C1N[C@@H](Cc2ccc(/N=C/c3ccccc3O)cc2)CO1` yielded an MIC (Candida albicans [18]) of 12.5 µg/mL (≈ 42.2 µM).

With `CCN(C(=S)NC(=O)c1ccc(Br)o1)C(C)C` the Activity (Aspergillus flavus [17]) was 50%.

In the case of `CCCN(CCC)C(=S)NC(=O)c1ccc(C)s1`, the Activity (Microsporum canis) is reported as 63%.

For `CNCCC/N=C/c1c(O)ccc2c(C)cc(=O)oc12`, the MIC (Candida albicans [18]) was 12.5 µg/mL (≈ 45.6 µM).

In the case of `CCCN(CCC)C(=S)NC(=O)c1cccs1`, the Activity (Candida albicans [19]) is reported as 50%.

`CCN(C(=S)NC(=O)c1cccs1)C(C)C` showed an Activity (Candida albicans [19]) of 53% and an Activity (Nakaseomyces glabratus) of 43%.

`CCN(C(=S)NC(=O)c1ccc(C)s1)C(C)C` showed an Activity (Aspergillus flavus [17]) of 57% and an Activity (Nakaseomyces glabratus) of 62%.

Work on `Oc1ccccc1/N=N/c1ccc(O)c2ccccc12` yielded an MIC (Aspergillus flavus [20]) of 6.25 µg/mL (≈ 23.6 µM), an MIC (Candida albicans [21]) of 6.25 µg/mL (≈ 23.6 µM) and an MIC (Aspergillus flavus [22]) of 6.25 µg/mL (≈ 23.6 µM). The MIC (Candida albicans [23]) was 50 µg/mL (≈ 189 µM).

Compound `Oc1ccccc1/C=N/c1ccc(Cn2cncn2)cc1` has an MIC (Candida albicans [18]) of 12.5 µg/mL (≈ 44.9 µM).
